The values that follow come from patent US20030215462A1, “Use of UGT inhibitors to increase bioavailability” (priority 2001, published 2003).

Several values for one entry are separate records, joined by “and”; a condition that tells them apart may be missing. Equal entries are not always repeated.

The target of data set [1] is T1, UGT1A8 (Homo sapiens, UniProt Q9HAW9).
T1 sequence (Q9HAW9 26-530): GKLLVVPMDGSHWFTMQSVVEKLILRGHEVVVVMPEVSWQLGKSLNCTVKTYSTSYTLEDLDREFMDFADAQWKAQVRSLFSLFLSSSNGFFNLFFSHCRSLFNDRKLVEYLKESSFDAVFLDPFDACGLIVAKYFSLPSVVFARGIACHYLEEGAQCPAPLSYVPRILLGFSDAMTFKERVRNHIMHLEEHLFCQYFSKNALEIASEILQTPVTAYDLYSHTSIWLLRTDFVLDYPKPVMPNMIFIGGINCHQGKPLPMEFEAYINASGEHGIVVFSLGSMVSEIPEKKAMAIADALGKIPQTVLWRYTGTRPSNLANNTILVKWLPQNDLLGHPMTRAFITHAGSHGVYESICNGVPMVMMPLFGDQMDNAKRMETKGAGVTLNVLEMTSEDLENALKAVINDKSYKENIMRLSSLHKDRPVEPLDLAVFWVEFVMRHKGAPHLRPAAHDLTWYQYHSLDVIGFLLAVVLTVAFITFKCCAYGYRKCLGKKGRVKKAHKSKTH
Nature of the data set: Substrate glucuronidation by recombinant UGT1A8. To be noted: UGT1A8 Supersomes 250 μg/ml; 7-HFC 50 μM.

Data set [2] has as its target T2, UGT1A1 (Homo sapiens, UniProt P22309).
T2 sequence (P22309 26-533): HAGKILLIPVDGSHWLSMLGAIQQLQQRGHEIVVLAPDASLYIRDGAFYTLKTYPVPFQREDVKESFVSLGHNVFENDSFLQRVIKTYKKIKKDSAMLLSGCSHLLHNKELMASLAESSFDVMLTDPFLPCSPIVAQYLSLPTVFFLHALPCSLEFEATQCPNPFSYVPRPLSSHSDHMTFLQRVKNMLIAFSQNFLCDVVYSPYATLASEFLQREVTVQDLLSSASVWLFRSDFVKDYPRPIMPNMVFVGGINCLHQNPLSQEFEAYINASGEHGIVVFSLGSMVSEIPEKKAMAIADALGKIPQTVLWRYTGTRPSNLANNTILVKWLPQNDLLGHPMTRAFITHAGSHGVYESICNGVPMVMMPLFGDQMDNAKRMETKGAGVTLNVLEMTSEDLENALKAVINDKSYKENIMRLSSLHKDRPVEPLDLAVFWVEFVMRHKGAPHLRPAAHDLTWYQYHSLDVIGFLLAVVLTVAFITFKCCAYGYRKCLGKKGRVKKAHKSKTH
Nature of the data set: Substrate glucuronidation by recombinant UGT1A1. Particulars: for 7-HFC glucuronidation rate: 7-HFC 50 μM.

For data set [3], the target named is T3, UGT1A9 (Homo sapiens, UniProt O60656).
T3 sequence (O60656 26-530): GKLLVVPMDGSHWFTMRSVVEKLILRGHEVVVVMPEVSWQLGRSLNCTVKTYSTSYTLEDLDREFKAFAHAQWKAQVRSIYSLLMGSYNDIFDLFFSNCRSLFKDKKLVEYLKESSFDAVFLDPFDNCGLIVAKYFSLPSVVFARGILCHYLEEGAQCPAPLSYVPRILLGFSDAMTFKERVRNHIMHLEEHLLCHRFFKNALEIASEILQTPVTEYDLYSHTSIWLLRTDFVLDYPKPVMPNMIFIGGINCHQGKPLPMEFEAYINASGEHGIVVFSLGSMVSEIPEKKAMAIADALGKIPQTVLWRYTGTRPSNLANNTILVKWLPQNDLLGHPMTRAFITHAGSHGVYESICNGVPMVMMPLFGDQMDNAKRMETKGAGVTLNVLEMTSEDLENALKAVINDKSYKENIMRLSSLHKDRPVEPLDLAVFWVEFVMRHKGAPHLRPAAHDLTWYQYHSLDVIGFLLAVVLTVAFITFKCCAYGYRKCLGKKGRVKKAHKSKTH
Nature of the data set: Substrate glucuronidation by recombinant UGT1A9.

Take `O=c1cc(C(F)(F)F)c2ccc(O)cc2o1` [7-HFC, 7-hydroxy-4-(trifluoromethyl)coumarin]: the 7-HFC glucuronidation rate in data set [1] was 486 ± 5 pmol/min/mg protein; in data set [2] (UGT1A1 Bacculosomes 250 μg/ml) it was 346 ± 12 pmol/min/mg protein; in data set [2] (UGT1A1 Supersomes 250 μg/ml), 816 ± 70 pmol/min/mg protein and 929 ± 7 pmol/min/mg protein; in data set [3] (UGT1A9 Supersomes 250 μg/ml, 7-HFC 50 μM), 3976 ± 41 pmol/min/mg protein. In addition, the “7-HFC glucuronidation rate in Panvera Bacculosomes as % of Gentest Supersomes” value in data set [2] (UGT1A1) came to 42%. Also, the “7-HFC glucuronidation rate as % of the rate for UGT1A6” value in data set [3] (UGT1A9) was found to be 81%.
